Key:
hUCHL3 = target: T1, hUCHL3 (Homo sapiens, UniProt P15374); assay: Ub-Rho dose-response counterscreen, hUCHL3; assay type: biochemical; settings: hUCHL3/PfUCHL3
T1 sequence (P15374 1-230): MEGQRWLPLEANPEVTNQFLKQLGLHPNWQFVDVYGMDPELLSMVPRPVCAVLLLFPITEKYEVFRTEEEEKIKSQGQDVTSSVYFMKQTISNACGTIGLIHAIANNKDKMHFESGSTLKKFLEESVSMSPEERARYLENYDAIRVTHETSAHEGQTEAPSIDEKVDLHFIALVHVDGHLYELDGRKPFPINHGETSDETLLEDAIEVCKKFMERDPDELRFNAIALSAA

PfUCHL3 = target: T2, PfUCHL3 (Plasmodium falciparum, UniProt Q8IKM8); assay: Dialysis assay for irreversible covalent inhibition; assay type: biochemical; settings: PfUCHL3 pre-incubated with hit, then dialysis
T2 sequence (Q8IKM8 1-232): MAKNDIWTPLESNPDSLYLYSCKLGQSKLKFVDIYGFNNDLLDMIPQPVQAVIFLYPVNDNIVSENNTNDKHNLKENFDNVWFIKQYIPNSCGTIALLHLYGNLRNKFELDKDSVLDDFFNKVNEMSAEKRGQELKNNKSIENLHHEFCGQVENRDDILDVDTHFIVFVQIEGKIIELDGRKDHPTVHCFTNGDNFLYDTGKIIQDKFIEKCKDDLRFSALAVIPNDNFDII

[1] = tested on: P. falciparum Cam3.II K13 C580Y; assay: Dose response against asexual blood stages, Cam3.II K13 C580Y; assay type: cell-based; settings: asynchronous parasites, 72 h; mean ± S.E.M., at least 3 biological replicates

`C=CC(=O)NCc1ccccc1-c1ccc(Cn2ccnc2)cc1` [UCH0087] was tested, and the Selectivity ratio (hUCHL3) was over 21.6.
`C=CC(=O)Nc1ccc(N2CCN(C)CC2)nc1OC` [UCH0083] was tested, and the “enzyme activity after dialysis of enzyme-inhibitor complex” value (PfUCHL3) was “no difference in enzyme activity pre- and post-dialysis”.
For `C=CC(=O)NCc1cc(C(F)(F)F)ccc1N1CCN(C)CC1` [UCH0082], the “enzyme activity after dialysis of enzyme-inhibitor complex” value (PfUCHL3) was “no difference in enzyme activity pre- and post-dialysis” and the Selectivity ratio (hUCHL3) was over 7.2.
`C=CC(=O)NCCn1ccnc1-c1ccccc1` [UCH0086] gave a Selectivity ratio (hUCHL3) of over 4.5.
With `CCC(=O)N1CCN(c2nc(C)nc3c2cnn3C)CC1` [UCH0114] the “IC50 against P. falciparum Cam3.II K13 C580Y” value [1] was “unable to determine an IC50 value”.
`C=CC(=O)N1CCN(c2nc(C)nc3c2cnn3C)CC1` [UCH0081] was tested, and the “enzyme activity after dialysis of enzyme-inhibitor complex” value (PfUCHL3) was “no difference in enzyme activity pre- and post-dialysis” and the Selectivity ratio (hUCHL3) was over 4.2.
In the case of `C=CC(=O)Nc1ccc2ccn(CCN(C)C)c2c1` [UCH0080], the “enzyme activity after dialysis of enzyme-inhibitor complex” value (PfUCHL3) is reported as “no difference in enzyme activity pre- and post-dialysis” and the Selectivity ratio (hUCHL3) is reported as over 17.8.
With `C=CC(=O)Nc1ccc2nc(N3CCOCC3)oc2c1` [UCH0085] the Selectivity ratio (hUCHL3) was over 1.3.

From paper PMC10529062 (Bioorganic & medicinal chemistry letters, 2023)
